In patent US20220089602A1, “COMPOUNDS THAT INDUCE FERROPTIC CELL DEATH” (The Board of Trustees of the University of Illinois, priority 2019, published 2022):

Experiments:
[1] = test system: HCT 116 cells; assay: In-gel fluorescence proteome labeling; format: cell-based; details: 30 min dose-dependent treatment
Procedure: Cells were harvested by centrifugation (500×g, 3 min), washed with PBS, and resuspended in RIPA lysis buffer (50 mM Tris, 150 mM NaCl, 1% Triton X-100, 0.5% sodium deoxycholate, 0.1% SDS, pH=7.4) containing 1× protease inhibitor cocktail on ice. Protein concentration was determined by the Bradford assay and lysates were stored at −20° C. until further use. Samples were resolved in a 4-20% SDS-PAGE gel (Bio-Rad) at 120 V for 70 min. After PBS washes, each gel was scanned for fluorescence signal using a Molecular Dynamics Typhoon 9400 Multilaser Scanner at the Proteomics Center at UIUC (excitation at 526 nm, green laser, high sensitivity, 530 pmt). Gels were then treated with Coomassie Blue stain (Imperial Stain, ThermoFisher) via shaking for 45 min to stain for the total protein content. Upon proteome labeling, gels were destained for 15 min-overnight on MilliQ H2O followed by imaging in a Gel Dox XR+ from Bio-Rad (ex. 470 nm, UV High filter).

[2] = test system: A549 cells; assay: Protection studies against ferroptocide-induced cell death, AV/PI; format: cell-based; details: pre-treatment with protecting agent
Procedure: (§1) ES-2, HCT 116, Mia PaCa-2, A549, and 4T1 cells (1×10^5 cells/mL) were plated overnight in 12 well plates, prior to addition of compounds. For protection studies, samples were pre-treated with each protecting agent such as 25 μM Q-VD-OPh, 250 μM trolox, 2 μM ferrostatin-1, 5 mM NAC-1 (neutralized pH), or 100 μM deferoxamine (DFO) for two hours or 1 hr (NAC-1) before compound addition. Cells were incubated for the appropriate times and harvested for flow cytometry analysis. Cell pellets were resuspended in binding buffer (10 mM HEPES, pH 7.4, 140 mM NaCl, 2.5 mM CaCl2) containing 2 μg/mL propidium iodide and 5 μL/mL Annexin V-FITC conjugate antibody and analyzed for cell viability after gating for forward and side scattering. Ten thousand events were collected per sample in BD LSR II Flow Cytometer (BD Bioscience) and FCS express V6, De Novo software was used to perform experimental analysis.

[3] = test system: ES-2 cells; assay: as above; format: cell-based; details: pre-treatment with protecting agent
Procedure: as §1

[4] = test system: HCT 116 cells; assay: as above; format: cell-based; details: pre-treatment with protecting agent
Procedure: Cells were incubated for the appropriate times and harvested for flow cytometry analysis. Cell pellets were resuspended in binding buffer (10 mM HEPES, pH 7.4, 140 mM NaCl, 2.5 mM CaCl2) containing 2 μg/mL propidium iodide and 5 μL/mL Annexin V-FITC conjugate antibody and analyzed for cell viability after gating for forward and side scattering. Ten thousand events were collected per sample in BD LSR II Flow Cytometer (BD Bioscience) and FCS express V6, De Novo software was used to perform experimental analysis.

[5] = test system: 4T1 cells; assay: as above; format: cell-based, murine; details: pre-treatment with protecting agent
Procedure: as §1

Row | SMILES | proteome labeling selectivity [1] | protection against ferroptocide-induced cell death [2] | protection against ferroptocide-induced cell death [3] | protection against ferroptocide-induced cell death [4] | protection against ferroptocide-induced cell death [5]
1 | CC1=CC(C)=[N+]2C1=Cc1ccc(CCC(=O)NCCCn3cc(CN4C(=O)C5CC=C([C@@H]6C[C@@H](OC(=O)CI)[C@]7(C)[C@H](C)CC[C@]8(C[C@H](O)C(=O)[C@]87O)[C@H]6C)CC5C4=O)nn3)n1[B-]2(F)F (some centres unmarked) [Compound P31] | Promiscuous bioactivity | – | – | – | –
2 | CCOC(=O)c1ccc(NC2CCCCC2)c(N)c1 [ferrostatin-1] | – | significantly protected against ferroptocide-induced cell death | significantly protected against ferroptocide-induced cell death | significantly protected against ferroptocide-induced cell death | significantly protected against ferroptocide-induced cell death
